Drawing on ChEMBL document CHEMBL5465560, “Selectivity Literature for EUbOPEN Chemogenomic Library” (2024), this text covers % of control, % of inhibition and % of engagement for ten molecules.

For experiment [1], the target named is Serine/threonine-protein kinase NIM1 (Homo sapiens, UniProt Q8IY84). As to the kind of experiment: Selectivity interaction (Kinase panel (Z-LYTE Assay)) EUB0001632a NIM1K. Particulars: at 10 µM.
The target in experiment [2] is T1, Atypical kinase COQ8A, mitochondrial (Homo sapiens, UniProt Q8NI60). Briefly: Selectivity interaction (LanthaScreen Eu Kinase Binding Assay) EUB0001632a ADCK3. Particulars: at 10 µM. In general terms: Time-resolved FRET reads energy transfer from a long-lived donor to a nearby acceptor.
T1 sequence (Q8NI60 163-647 limits assumed): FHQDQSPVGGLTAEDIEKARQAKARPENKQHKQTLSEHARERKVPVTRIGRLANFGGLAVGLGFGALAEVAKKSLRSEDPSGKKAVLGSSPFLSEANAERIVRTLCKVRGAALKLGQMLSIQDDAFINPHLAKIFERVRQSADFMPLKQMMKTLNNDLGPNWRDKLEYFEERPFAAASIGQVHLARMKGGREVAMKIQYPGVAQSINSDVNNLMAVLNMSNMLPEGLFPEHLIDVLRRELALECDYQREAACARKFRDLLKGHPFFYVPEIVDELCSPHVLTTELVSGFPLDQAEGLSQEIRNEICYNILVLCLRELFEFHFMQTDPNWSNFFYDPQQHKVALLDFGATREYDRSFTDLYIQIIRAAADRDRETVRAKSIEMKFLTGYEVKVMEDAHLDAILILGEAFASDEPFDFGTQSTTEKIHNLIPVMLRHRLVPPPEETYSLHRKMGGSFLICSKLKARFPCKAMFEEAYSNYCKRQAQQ
In experiment [3] the target is Proto-oncogene tyrosine-protein kinase Src (Homo sapiens, UniProt P12931). Briefly: Selectivity interaction (ActivX KiNativ screen (ex vivo kinase selectivity in human PBMCs)) EUB0001619a SRC. It counts as cell-based. Particulars: PBMC, at 1 µM.
Chain of Proto-oncogene tyrosine-protein kinase Src (P12931 2-536 limits assumed): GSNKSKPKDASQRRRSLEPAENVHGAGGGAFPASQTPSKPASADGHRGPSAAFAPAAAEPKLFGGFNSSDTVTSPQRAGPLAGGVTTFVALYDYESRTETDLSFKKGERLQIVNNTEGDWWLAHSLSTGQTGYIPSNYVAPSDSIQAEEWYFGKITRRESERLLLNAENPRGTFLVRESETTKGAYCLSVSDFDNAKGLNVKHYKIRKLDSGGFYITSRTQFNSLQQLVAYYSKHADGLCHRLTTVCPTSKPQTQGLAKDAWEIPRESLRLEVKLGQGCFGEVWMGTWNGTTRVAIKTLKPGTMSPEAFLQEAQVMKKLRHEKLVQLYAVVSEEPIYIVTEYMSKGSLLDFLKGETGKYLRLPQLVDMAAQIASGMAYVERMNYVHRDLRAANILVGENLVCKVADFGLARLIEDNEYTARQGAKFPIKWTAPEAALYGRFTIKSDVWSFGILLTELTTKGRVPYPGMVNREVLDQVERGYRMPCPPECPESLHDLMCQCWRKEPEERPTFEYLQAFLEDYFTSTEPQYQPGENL
In experiment [4] the target is T2, Cyclin-dependent kinase-like 5 (Homo sapiens) (UniProt O76039).
T2 sequence (whole entry): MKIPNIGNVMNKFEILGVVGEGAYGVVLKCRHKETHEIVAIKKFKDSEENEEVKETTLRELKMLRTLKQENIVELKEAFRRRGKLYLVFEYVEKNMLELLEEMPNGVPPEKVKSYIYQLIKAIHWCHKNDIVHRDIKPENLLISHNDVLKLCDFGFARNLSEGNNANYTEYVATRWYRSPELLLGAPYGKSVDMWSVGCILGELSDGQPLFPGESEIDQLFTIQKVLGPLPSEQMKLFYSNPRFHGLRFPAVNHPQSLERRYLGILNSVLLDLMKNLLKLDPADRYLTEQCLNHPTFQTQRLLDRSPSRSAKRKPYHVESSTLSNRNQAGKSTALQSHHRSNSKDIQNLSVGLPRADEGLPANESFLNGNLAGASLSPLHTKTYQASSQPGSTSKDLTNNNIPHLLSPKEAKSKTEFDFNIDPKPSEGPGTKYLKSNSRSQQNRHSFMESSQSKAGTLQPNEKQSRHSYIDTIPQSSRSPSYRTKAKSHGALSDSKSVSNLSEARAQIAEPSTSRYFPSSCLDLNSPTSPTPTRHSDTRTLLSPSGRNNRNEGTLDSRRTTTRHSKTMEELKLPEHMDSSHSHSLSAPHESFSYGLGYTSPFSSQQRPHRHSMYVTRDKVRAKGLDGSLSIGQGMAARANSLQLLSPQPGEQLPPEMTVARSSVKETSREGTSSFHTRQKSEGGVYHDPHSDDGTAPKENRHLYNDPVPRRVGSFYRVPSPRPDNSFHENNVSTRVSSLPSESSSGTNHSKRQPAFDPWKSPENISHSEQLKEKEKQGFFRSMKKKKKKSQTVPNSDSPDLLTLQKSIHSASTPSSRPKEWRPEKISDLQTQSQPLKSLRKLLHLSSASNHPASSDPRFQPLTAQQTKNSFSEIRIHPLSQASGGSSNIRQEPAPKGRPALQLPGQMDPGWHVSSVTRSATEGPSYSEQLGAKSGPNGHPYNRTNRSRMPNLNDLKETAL
Briefly: Selectivity interaction (KinomeScan (DiscoverX)) EUB0000666a CDKL5. Particulars: at 10 µM.

For experiment [5], the target named is Mitogen-activated protein kinase 14 (Homo sapiens, UniProt Q16539). Briefly: Selectivity interaction (KinomeScan (DiscoverX)) EUB0000607a MAPK14. As to conditions: at 10 µM.
Chain of Mitogen-activated protein kinase 14 (Q16539 whole entry): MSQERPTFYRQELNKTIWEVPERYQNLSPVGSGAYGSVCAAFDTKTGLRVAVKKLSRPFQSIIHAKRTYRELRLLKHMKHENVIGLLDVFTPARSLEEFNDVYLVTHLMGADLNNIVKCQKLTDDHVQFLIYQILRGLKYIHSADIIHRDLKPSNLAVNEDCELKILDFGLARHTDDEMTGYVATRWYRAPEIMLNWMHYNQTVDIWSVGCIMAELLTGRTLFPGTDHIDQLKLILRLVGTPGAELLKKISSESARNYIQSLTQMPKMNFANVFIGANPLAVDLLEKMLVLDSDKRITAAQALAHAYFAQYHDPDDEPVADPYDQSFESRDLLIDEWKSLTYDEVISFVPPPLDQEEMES
In experiment [6] the target is Serine/threonine-protein kinase Nek6 (Homo sapiens) (UniProt Q9HC98). As to the kind of experiment: Selectivity interaction (KinomeScan (DiscoverX)) EUB0000607a NEK6. Particulars: at 10 µM.
Chain of Serine/threonine-protein kinase Nek6 (Homo sapiens) (Q9HC98 whole entry): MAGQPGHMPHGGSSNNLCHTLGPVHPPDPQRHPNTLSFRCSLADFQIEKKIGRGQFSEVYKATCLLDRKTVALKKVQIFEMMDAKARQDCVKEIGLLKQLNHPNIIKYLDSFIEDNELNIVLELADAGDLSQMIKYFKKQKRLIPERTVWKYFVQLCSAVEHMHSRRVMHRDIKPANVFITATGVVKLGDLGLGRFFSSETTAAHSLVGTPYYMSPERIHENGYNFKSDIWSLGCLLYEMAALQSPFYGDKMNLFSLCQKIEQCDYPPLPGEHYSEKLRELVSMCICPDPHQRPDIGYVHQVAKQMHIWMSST
Experiment [7] deals with T3, Serine/threonine-protein kinase Nek5 (Homo sapiens) (UniProt Q6P3R8).
T3 sequence (whole entry): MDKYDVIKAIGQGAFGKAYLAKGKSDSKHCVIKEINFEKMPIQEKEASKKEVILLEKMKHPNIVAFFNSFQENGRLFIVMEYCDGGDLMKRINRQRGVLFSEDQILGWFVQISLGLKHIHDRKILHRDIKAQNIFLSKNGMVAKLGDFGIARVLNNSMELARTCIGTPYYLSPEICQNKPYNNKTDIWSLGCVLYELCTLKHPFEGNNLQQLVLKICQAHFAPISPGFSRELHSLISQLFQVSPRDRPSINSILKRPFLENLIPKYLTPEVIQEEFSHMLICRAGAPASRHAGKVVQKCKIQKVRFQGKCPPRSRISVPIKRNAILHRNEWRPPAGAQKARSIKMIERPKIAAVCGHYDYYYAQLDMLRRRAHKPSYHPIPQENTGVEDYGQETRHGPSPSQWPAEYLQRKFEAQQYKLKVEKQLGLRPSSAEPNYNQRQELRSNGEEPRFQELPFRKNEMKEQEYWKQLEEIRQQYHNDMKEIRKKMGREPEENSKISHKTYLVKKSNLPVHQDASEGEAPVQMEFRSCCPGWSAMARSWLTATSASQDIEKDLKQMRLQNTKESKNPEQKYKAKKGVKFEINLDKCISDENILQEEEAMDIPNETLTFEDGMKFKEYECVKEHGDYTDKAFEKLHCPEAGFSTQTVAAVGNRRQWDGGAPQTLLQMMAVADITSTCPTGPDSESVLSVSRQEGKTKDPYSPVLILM
Particulars: at 10 µM.

In experiment [8] the target is T4, Serine/threonine-protein kinase ULK3 (Homo sapiens) (UniProt Q6PHR2).
T4 sequence (whole entry): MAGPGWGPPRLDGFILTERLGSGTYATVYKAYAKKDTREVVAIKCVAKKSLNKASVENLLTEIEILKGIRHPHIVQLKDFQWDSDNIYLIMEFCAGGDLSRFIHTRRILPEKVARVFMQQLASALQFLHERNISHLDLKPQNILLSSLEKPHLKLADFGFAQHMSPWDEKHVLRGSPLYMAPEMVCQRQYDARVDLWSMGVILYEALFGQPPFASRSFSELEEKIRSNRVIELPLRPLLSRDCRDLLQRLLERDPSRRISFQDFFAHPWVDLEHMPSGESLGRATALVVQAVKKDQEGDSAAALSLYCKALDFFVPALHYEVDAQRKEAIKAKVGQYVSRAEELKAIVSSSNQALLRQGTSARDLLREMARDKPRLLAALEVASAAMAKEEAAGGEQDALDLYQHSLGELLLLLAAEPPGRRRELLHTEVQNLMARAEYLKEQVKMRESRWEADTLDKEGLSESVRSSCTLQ
As to the kind of experiment: Selectivity interaction (ActivX KiNativ screen (kinase selectivity in THP-1 cell lysates)) EUB0000639a ULK3. In kind it is subcellular. As to conditions: lysate, at 5 µM.

Experiment [9] deals with T1, Atypical kinase COQ8A, mitochondrial. Briefly: Selectivity interaction (KinomeScan (DiscoverX)) EUB0000045b ADCK3.
The target in experiment [10] is Serine/threonine-protein kinase B-raf (Homo sapiens) (UniProt P15056). Briefly: Selectivity interaction (KinomeScan (DiscoverX)) EUB0001049a BRAF. Particulars: at 1 µM.
Chain of Serine/threonine-protein kinase B-raf (Homo sapiens) (P15056 whole entry): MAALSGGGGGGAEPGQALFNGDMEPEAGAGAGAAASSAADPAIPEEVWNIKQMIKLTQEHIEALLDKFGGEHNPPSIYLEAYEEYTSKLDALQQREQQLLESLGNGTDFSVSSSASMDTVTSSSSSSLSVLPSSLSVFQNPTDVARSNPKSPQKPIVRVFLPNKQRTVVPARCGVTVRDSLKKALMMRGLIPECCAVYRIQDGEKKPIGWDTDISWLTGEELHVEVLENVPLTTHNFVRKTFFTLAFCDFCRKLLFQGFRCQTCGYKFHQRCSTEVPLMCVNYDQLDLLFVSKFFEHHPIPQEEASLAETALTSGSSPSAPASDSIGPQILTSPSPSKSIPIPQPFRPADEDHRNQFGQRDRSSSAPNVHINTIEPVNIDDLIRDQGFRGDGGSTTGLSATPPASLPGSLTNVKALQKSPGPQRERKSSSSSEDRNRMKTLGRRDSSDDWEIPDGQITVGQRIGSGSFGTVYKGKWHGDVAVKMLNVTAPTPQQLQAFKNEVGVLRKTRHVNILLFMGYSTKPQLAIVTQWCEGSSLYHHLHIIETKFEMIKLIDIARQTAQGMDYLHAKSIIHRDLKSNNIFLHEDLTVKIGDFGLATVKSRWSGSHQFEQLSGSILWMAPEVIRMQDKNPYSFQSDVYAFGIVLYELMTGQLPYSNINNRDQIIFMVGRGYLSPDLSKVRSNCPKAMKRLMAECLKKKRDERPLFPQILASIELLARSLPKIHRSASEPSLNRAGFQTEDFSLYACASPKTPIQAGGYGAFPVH
The target in experiment [11] is Protein kinase C beta type (Homo sapiens, UniProt P05771). As to the kind of experiment: Selectivity interaction (Upstate Kinase Profiler service (Millipore)) EUB0000056c PRKCB. Particulars: at 1 µM.
Chain of Protein kinase C beta type (P05771 2-671 limits assumed): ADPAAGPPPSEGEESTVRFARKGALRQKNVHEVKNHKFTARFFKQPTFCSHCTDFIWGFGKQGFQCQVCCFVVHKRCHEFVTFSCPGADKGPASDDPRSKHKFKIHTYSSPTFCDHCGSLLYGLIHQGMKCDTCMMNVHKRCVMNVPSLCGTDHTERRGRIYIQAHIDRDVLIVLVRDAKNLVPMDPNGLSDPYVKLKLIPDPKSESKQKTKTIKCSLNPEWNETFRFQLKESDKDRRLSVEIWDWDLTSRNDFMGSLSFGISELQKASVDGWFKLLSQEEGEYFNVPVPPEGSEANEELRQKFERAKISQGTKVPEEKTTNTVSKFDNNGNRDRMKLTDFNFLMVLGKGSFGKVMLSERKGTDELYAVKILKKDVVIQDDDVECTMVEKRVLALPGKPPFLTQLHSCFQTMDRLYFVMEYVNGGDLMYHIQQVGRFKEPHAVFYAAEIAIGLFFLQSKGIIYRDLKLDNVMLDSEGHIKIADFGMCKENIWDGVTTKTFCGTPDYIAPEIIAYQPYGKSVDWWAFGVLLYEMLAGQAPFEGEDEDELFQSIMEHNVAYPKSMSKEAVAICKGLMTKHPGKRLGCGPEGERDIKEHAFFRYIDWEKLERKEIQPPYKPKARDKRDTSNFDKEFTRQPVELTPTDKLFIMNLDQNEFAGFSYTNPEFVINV
Experiment [12] addresses Cyclin-dependent kinase 5 (Homo sapiens, UniProt Q00535). Briefly: Selectivity interaction (Kinase panel (KiNativ target engagement assay in Jurkat cells)) EUB0001635a CDK5. It counts as cell-based. As to conditions: at 1 µM.

Chain of Cyclin-dependent kinase 5 (Q00535 whole entry, looked up): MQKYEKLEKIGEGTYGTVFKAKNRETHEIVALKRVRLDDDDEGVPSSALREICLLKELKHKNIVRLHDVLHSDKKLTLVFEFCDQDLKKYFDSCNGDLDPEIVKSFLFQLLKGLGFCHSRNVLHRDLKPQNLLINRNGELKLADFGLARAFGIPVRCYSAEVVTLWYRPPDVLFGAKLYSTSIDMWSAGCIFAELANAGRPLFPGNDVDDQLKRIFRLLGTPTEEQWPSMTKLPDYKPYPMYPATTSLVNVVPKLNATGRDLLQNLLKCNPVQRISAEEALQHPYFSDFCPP
Chain of Serine/threonine-protein kinase NIM1 (Q8IY84 whole entry): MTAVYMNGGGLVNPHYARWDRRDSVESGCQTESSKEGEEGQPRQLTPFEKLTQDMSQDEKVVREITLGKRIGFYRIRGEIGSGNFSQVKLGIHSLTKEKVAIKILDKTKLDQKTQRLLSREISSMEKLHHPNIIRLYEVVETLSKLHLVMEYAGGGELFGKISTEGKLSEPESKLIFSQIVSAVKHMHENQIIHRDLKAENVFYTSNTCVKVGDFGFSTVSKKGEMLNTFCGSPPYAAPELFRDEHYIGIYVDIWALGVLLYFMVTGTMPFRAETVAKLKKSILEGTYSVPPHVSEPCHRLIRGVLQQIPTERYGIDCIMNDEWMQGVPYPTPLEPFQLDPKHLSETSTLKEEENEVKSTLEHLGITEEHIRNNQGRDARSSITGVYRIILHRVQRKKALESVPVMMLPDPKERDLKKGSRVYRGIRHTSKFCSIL

Take `Cn1cc(-n2cnc3c(NCc4nc5cc(Cl)c(Cl)cc5[nH]4)nc(N4CCOCC4)nc32)cn1`: the % of control in experiment [1] stood at 4.54%. The % of inhibition in [2] was found to be 8.48%.
In the case of `N#Cc1cccc(-c2c[nH]c3ncnc(N4CCOCC4)c23)c1`, the % of inhibition in experiment [3] is 30%.
In experiment [4], `O=C(NOC[C@H](O)CO)c1ccc(F)c(F)c1Nc1ccc(I)cc1F` gave a % of control of 67%.
As for `CNC(=O)Nc1ccc(-c2nc(N3CC4CCC(C3)O4)c3cnn(C4CCC5(CC4)OCCO5)c3n2)cc1`, the % of control in experiment [5] was determined as 100%; in experiment [6], 90%.
With `Cc1cc([C@@H](C)Nc2ccccc2C(=O)O)c2nc(N3CCOCC3)cc(=O)n2c1` [AZD-6482], in [7], the % of control came to 100%.
As for `CC[C@@H]1[C@H](F)C(=O)N[C@@H]1COc1nccc2cc(C(N)=O)c(OC)cc12` [ZIMLOVISERTIB], the % of inhibition in experiment [8] was -10.2%.
Turning to `C=CC(=O)Nc1cc(-n2c(=O)ccc3cnc4ccc(-c5ccc(NS(C)(=O)=O)cc5)cc4c32)ccc1C`, the % of control in experiment [9] (at 1 µM) amounted to 100%; in experiment [9] (at 10 µM), 82%.
The molecule `COc1cc(Nc2nc(C)cc(-c3cnn4nc(OC)ccc34)n2)cc(C(F)(F)F)c1` displayed a % of control in experiment [10] of 100%.
On to `Cc1ccc(-c2ccc3c(ccc4sc5c(c43)NC[C@@H](C)NC5=O)n2)cn1`, for which the % of inhibition in [11] is 13%.
As to `C=CC(=O)Nc1ccc(C(=O)Nc2[nH]nc3c2CN(C(=O)N[C@H](CN(C)C)c2ccccc2)C3(C)C)cc1`, the % of engagement is -1.7% in experiment [12] (Selectivity number of off-targets 0.0, Selectivity number of targets 233.0, Source Knowledge https://www.sciencedirect.com/science/article/pii/S2451945619300674?via%3Dihub) and 0.4% in experiment [12].
